Test: Displacement of [3H]diazepam from GABAA/BzR in rat brain membrane
Format: cell membranes

| Structure (SMILES) | pIC50 |
| --- | --- |
| O=C1C2C=Nc3ccccc3C2=NN1c1ccc(Cl)cc1 (centres undefined) [CGS-9896] | 8.94 |
| Nc1ccc2[nH]c3c[nH]c4c5ccc(Cl)cc5nc-4c3c2c1 | 7.01 |
| Brc1ccc2[nH]c3c4c5ccccc5nc-4c[nH]c3c2c1 | 6.12 |
| Cc1ccc2c(c1)ncc1c(=O)n(-c3csc(C)c3)[nH]c12 | 8.87 |
| Fc1ccc2[nH]c3c4c5ccccc5nc-4c[nH]c3c2c1 | 8.22 |
| Cn1c2ccccc2c2c3[nH]c4ccccc4c3ncc21 | 5.94 |
| Cc1cc(-n2nc3c4ccccc4n(C)cc-3c2=O)cs1 | 6.52 |
| Cc1cc(-n2nc3c4cc(F)ccc4[nH]cc-3c2=O)cs1 | 9.29 |
| Oc1ccc2[nH]c3c4c5ccccc5nc-4c[nH]c3c2c1 | 6.94 |
| CCOC(=O)c1cc2c(cn1)oc1ccccc12 | 5.04 |
| O=[N+]([O-])c1ccc2[nH]c3c[nH]c4c5cc(Cl)ccc5nc-4c3c2c1 | 5.92 |
| Cn1c2ccccc2c2c1ccc1c3ccccc3n(C)c12 | 5.72 |
| COc1ccc2[nH]c3c4c5ccccc5nc-4c[nH]c3c2c1 | 6.05 |
| CCOC(=O)c1cc2c(cn1)sc1ccccc12 | 5.77 |
| Cc1nccc2c1[nH]c1ccccc12 [HARMAN] | 4.91 |
| Cc1cc(-n2nc3c4cc(Cl)ccc4[nH]cc-3c2=O)cs1 | 9.06 |
| Clc1ccc2[nH]c3c[nH]c4c5cccc(Cl)c5nc-4c3c2c1 | 6.51 |
| Brc1ccc2[nH]c3cnc4c5ccccc5[nH]c4c3c2c1 | 8.22 |
| Brc1cccc2c1[nH]c1c3c4ccccc4nc-3c[nH]c12 | 7.55 |
| c1ccc(Oc2ccc3[nH]c4c(ncc5[nH]c6ccccc6c54)c3c2)cc1 | 5.8 |
| Clc1cc2c(cn1)[nH]c1ccccc12 | 7.35 |
| O=c1c2cnc3ccccc3c2[nH]n1-c1csc(Cl)c1 | 8.99 |
| Clc1cccc2c1[nH]c1c3c4ccccc4nc-3c[nH]c12 | 7.1 |
| O=C1C2C=Nc3ccccc3C2=NN1c1ccccc1 (centres undefined) [CGS-8216] | 9.51 |
| c1ccc2c(c1)[nH]c1cnccc12 [NORHARMANE] | 5.79 |
| Brc1ccc2c(c1)[nH]c1c3c4ccccc4nc-3c[nH]c12 | 7.72 |
| CCOC(=O)c1cc2c(cn1)Cc1ccccc1-2 | 6.17 |

| Structure (SMILES) | pIC50 |
| --- | --- |
| Cc1cc(-n2[nH]c3c(cnc4ccccc43)c2=O)cs1 | 9.35 |
| Oc1cc2c3ccccc3nc-2c[nH]1 | 5.4 |
| Cc1cc(-n2[nH]c3c(cnc4cc(Cl)ccc43)c2=O)cs1 | 8.96 |
| Oc1ccc2c(c1)[nH]c1c3c4ccccc4nc-3c[nH]c12 | 8.22 |
| Cc1ccc2[nH]c3c4c5ccccc5nc-4c[nH]c3c2c1 | 6.65 |
| Fc1cccc2c1[nH]c1c3c4ccccc4nc-3c[nH]c12 | 7.92 |
| Clc1cccc2[nH]c3c4c5ccccc5nc-4c[nH]c3c12 | 6.15 |
| COC(=O)c1cc2c(cn1)[nH]c1ccccc12 [BETA-CCM] | 8.3 |
| Clc1ccc2c(c1)[nH]c1c2ncc2[nH]c3ccccc3c21 | 8 |
| Nc1ccc2[nH]c3c[nH]c4c5ccccc5nc-4c3c2c1 | 7.36 |
| CCc1nc2c3ccccc3[nH]c2c2c1[nH]c1ccccc12 | 6.6 |
| Fc1ccc2c(c1)[nH]c1c3c4ccccc4nc-3c[nH]c12 | 8.15 |
| Oc1cccc2[nH]c3c4c5ccccc5nc-4c[nH]c3c12 | 6.24 |
| O=c1c2cnc3ccccc3c2[nH]n1-c1ccsc1 | 8.99 |
| Cc1cc(-n2[nH]c3c(cnc4cc(F)ccc43)c2=O)cs1 | 9.05 |
| COc1cc2c(cn1)[nH]c1ccccc12 | 6.91 |
| Cc1cccc2c1[nH]c1c3c4ccccc4nc-3c[nH]c12 | 7.08 |
| Cc1ccc2[nH]cc3c(=O)n(-c4csc(C)c4)nc-3c2c1 | 9.27 |
| COc1cccc2[nH]c3c4c5ccccc5nc-4c[nH]c3c12 | 6.6 |
| O=[N+]([O-])c1ccc2[nH]c3c[nH]c4c5ccc(Cl)cc5nc-4c3c2c1 | 6.9 |
| Cc1ccc2c(c1)[nH]c1c3c4ccccc4nc-3c[nH]c12 | 8.1 |
| c1ccc2c(c1)[nH]c1c2ncc2[nH]c3ccccc3c21 | 8.4 |
| O=[N+]([O-])c1ccc2[nH]c3c[nH]c4c5ccccc5nc-4c3c2c1 | 8.4 |
| COc1ccc2c(c1)[nH]c1c2ncc2[nH]c3ccccc3c21 | 8.1 |
| Cn1c2ccccc2c2[nH]cc3nc4ccccc4c-3c21 | 6.8 |
| O=[N+]([O-])c1cc2c3ccccc3nc-2c[nH]1 | 6.9 |
| Clc1ccc2[nH]c3c4c5ccccc5nc-4c[nH]c3c2c1 | 5.67 |

From ChEMBL document CHEMBL1141665, “Quantitative structure-activity relationship studies of a series of non-benzodiazepine structural ligands binding to benzodiazepine receptor” (Eur J Med Chem, 2008)
